Data from patent US20060160818A1, “Ocular hypotensive agent” (priority 2003, published 2006).
Where a name gives a salt, the structure may show the parent alone.

Test system: ocular tension
Assay: Ocular tension-reducing activity by administration to anterior chamber
Type: in vivo, rabbit
Details: overall conclusion from Examples 1 to 4
Protocol: Test solutions 1 to 3 were prepared as mentioned below. […] Non-white 5 male rabbits were used. Ocular tension was measured under topically anesthetizing the corneal surface with 0.4% oxybuprocaine hydrochloride by using an air impression electronic tonometer (by Japan Alcon Company). The rabbit was fitted in a cylinder, after topically anesthetizing the corneal surface with 0.4% oxybuprocaine hydrochloride, and the test solution 10 μl was injected via cornea in anterior chamber of one eye with an injection needle (30G). To the other eye as a control eye, in the same way as mentioned above, a physiological saline was injected. Ocular tension just before and after injection of the test solution or the physiological saline was measured in accordance with the same method as mentioned above. […] Ocular tension just before and after injection of the test solution and the physiological saline was measured in accordance with the same method as mentioned in Example 1.

Row | SMILES | ocular tension-reducing activity (summary in words)
1 | O=C(O)CC(O)(CC(=O)O)C(=O)O.O=C1[C@@H]2[C@@H]3CC[C@@H](C3)[C@@H]2C(=O)N1CCCCN1CCN(c2ncccn2)CC1 [tandospirone citrate] | have ocular tension-reducing activity
2 | O=C1[C@H]2CCCC[C@H]2C(=O)N1CCCCN1CCN(c2nsc3ccccc23)CC1 [perospirone hydrochloride hydrate] | have ocular tension-reducing activity
